Data as given in paper PMC10819521 (Pharmaceutics, 2024).

Tests used:
[1] = tested on: voltage-gated calcium channels; assay: Calcium channel blockade (FLIPR Calcium 6 indicator, SH-SY5Y cells); format: cell-based, human; settings: compounds at 10 µM, KCl/CaCl2 stimulation, n.i. = no inhibition
Protocol: Calcium channel blockade. Evaluation of the calcium channel blockade of compounds 4a–l was performed using the FLIPR Calcium 6 indicator according to a previously established protocol. Briefly, human neuroblastoma cell line SH-SY5Y seeded out on 96-well plate were treated with fluorescent calcium indicator (FLIPR Calcium 6, Molecular Devices). Cells were incubated with indicator for 2 h at 37 °C, facilitating internalization of the indicator. Subsequently, cells were exposed to nimodipine (10 µM, used as reference inhibitor), DMSO (0.1%, used as vehicle control) or our compounds of interest (10 µM) for 10 min also at 37 °C. Following that, cell fluorescence was recorded using a microplate reader (λEx = 485 nm; λEm = 525 nm). Baseline fluorescence was recorded for 5 s. Afterwards, cells were stimulated by the addition of the solution of KCl and CaCl2 (90 and 5 mM, respectively) in order to induce the opening of voltage-gated calcium channels. An increase in fluorescence of calcium indicator after inducing calcium flux was recorded for another 30 s. Data were collected from three independent experiments, with eight technical replicates per experiment. Fluorescence intensity values were normalized to the baseline recorded before the induction of calcium flux. The percentage of inhibition was calculated as a reduction of normalized calcium flux in comparison with the DMSO vehicle control. Outliers were detected using the Grubbs test, and any outlying values were excluded from further analysis.
Calcium channel blockade. The Ca^2+ channel blocking capacity of compounds 4a–l and nimodipine, used as a standard at a concentration of 10 μM, was evaluated according to an established methodology.

[2] = Oxygen radical absorbance capacity assay (ORAC-FL); settings: ORAC-FL method; mean ± SEM
Protocol: Oxygen radical absorbance capacity assay. The evaluation of the antioxidant activity of compounds 4a–l was carried out using the previously established ORAC-FL method, and detailed information is provided in the supporting information.
Antioxidant assay. The antioxidant assessment was conducted by evaluating the compounds 4a–l through the determination of oxygen radical absorbance capacity (ORAC) using the ORAC-Fluorescein (ORAC-FL) method […]
Oxygen radical absorbance capacity assay.
ORAC-FL method, using fluorescein as a fluorescent probe. Shortly, fluorescein and the antioxidants
2,2'-Azobis(amidinopropane)
(emission wavelength) every minute for 1 hour. […]

Nrf2-ARE = assay: Nrf2 transcriptional activation, cell-based luciferase assay; settings: CD = concentration required to double the specific activity of the luciferase reporter; 24 h; read-out: Nrf2 Induction Potencies CD
Protocol: Nrf2 transcriptional activation potencies. The assessment of the Nrf2 transcriptional activation potencies of compounds 4a–l was carried out using the previously described method, and detailed information is provided in the supporting information.
Nrf2 transcriptional activation potencies of compounds 4a–l. […] AREc32 cells were exposed to escalating concentrations of each compound (1, 5, 10, 25, 50, 100, 125, and 150 μM) for 24 h to reach the cytotoxic threshold, followed by measurements of luciferase activity. Melatonin was used as a positive control.
4e H Cl H n.i. 76 n.i. […]
Nrf2 transcriptional activation potencies. The stable NRF2/ARE luciferase reporter HEK293 cell line
(Promega) according to the manufacturer's instructions. To assess cellular viability, the stable

[3] = target: T1, Human recombinant cathepsin S (Homo sapiens, UniProt P25774); assay: Cathepsin S assay (fluorogenic substrate Z-Phe-Arg-AMC); format: biochemical; settings: 50 µM inhibitor, 60 min; 100% = no inhibitor; n.i. = residual activity ≥ 95%; read-out: Percentage residual activity of human cathepsin S
T1 construct: purchased Enzo Life Sciences
T1 sequence (P25774 115-331): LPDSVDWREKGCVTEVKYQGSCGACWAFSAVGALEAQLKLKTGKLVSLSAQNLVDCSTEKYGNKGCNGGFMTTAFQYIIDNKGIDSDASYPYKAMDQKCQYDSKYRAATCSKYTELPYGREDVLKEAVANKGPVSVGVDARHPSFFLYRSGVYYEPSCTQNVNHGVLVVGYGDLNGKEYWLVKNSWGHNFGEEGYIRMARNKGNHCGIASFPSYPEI
Protocol: (§1) Cathepsin assays. Assays with human cathepsins B, S, L, and K were carried out as described previously. Stock solutions of substrates and inhibitors were prepared in DMSO. The final DMSO concentration was 2%. All test compounds were investigated in duplicate at a concentration of 50 µM to determine residual activities based on endpoints of substrate consumption after 60 min. Ki values were obtained in duplicate measurements with six different inhibitor concentrations, and 60-min-progress curves were analyzed by linear regression. IC50 values were obtained by non-linear regression using the equation vi = v0/(1 + ([I]/IC50), where vi is the product formation rate at different inhibitor concentrations, v0 is the uninhibited product formation rate, [I] is the inhibitor concentration, and IC50 is the half-maximal inhibitory concentration. IC50 values are transformed to Ki values using the Cheng-Prusoff equation.
Human recombinant cathepsin S (Enzo Life Sciences) was assayed fluorometrically (FLUOstar Optima plate reader, BMG Labtech) at 25 °C with an emission wavelength of 360 nm and an absorption wavelength of 460 nm. The assay buffer was 100 mM sodium phosphate buffer pH 6.0, 100 mM NaCl, 5 mM EDTA, 0.01% Brij 35. For activation, an enzyme stock solution was diluted with assay buffer containing 5 mM DTT and incubated for 60 min at 37 °C.
(§2) Cathepsins inhibition. Compounds 4a–l were then evaluated for their ability to inhibit Cat S. Besides Cat S, the set of assays included three related human cathepsins, B, L, and K, all members of the class of lysosomal cysteine proteases (see Table S1 in the Supporting Information). Following reported procedures, [39, 40, 41] percentage or residual activities were determined using chromogenic or fluorogenic peptide substrates, with endpoints measured after 60 min of substrate consumption. To determine Ki values, progress curves were followed over 60 min and analyzed by linear regression. Ki values were then obtained by non-linear regression.

[4] = target: T2, Human isolated cathepsin B (Homo sapiens, UniProt P07858); assay: Cathepsin B assay (chromogenic substrate Z-Arg-Arg-pNA); format: biochemical; settings: 50 µM inhibitor, 60 min; 100% = no inhibitor; n.i. = residual activity ≥ 95%; read-out: Percentage residual activity of human cathepsin B
T2 construct: Human isolated cathepsin B (Calbiochem) was assayed spectrophotometrically; purchased Calbiochem
Protocol: as §1
(§3) Human isolated cathepsin B (Calbiochem) was assayed spectrophotometrically (Cary 50 Bio, Varian) at 405 nm and 37 °C. Assay buffer was 100 mM sodium phosphate buffer pH 6.0, 100 mM NaCl, 5 mM EDTA, 0.01% Brij 35. For activation, an enzyme stock solution was diluted with assay buffer containing 5 mM DTT and incubated for 30 min at 37 °C. The final concentration of the chromogenic substrate Z-Arg-Arg-pNA was 500 µM (0.45 × Km).
as §2

[5] = target: T3, Human isolated cathepsin L (Homo sapiens, UniProt P07711); assay: Cathepsin L assay (chromogenic substrate Z-Phe-Arg-pNA); format: biochemical; settings: 50 µM inhibitor, 60 min; 100% = no inhibitor; n.i. = residual activity ≥ 95%; read-out: Percentage residual activity of human cathepsin L
T3 construct: Human isolated cathepsin L (Enzo Life Sciences) was assayed spectrophotometrically; purchased Enzo Life Sciences
T3 sequence (P07711 114-333): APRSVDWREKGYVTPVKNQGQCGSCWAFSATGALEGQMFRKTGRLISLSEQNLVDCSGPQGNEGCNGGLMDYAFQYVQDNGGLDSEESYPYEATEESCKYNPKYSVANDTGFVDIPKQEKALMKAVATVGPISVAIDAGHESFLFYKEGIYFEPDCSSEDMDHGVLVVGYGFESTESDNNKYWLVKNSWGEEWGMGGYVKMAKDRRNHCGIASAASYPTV
Protocol: as §1
as §3, with “L (Enzo Life Sciences)” for “B (Calbiochem)”, “The assay” for “Assay”, “EDTA, and” for “EDTA,”, “Z-Phe-Arg-pNA” for “Z-Arg-Arg-pNA”, “100” for “500”, “(5.88” for “(0.45”
as §2

[6] = target: T4, Human recombinant cathepsin K (Homo sapiens, UniProt P43235); assay: Cathepsin K assay (substrate Z-Leu-Arg-AMC); format: biochemical; settings: 50 µM inhibitor, 60 min; 100% = no inhibitor; n.i. = residual activity ≥ 95%; read-out: Percentage residual activity of human cathepsin K
T4 construct: purchased Enzo Life Sciences
T4 sequence (P43235 115-329): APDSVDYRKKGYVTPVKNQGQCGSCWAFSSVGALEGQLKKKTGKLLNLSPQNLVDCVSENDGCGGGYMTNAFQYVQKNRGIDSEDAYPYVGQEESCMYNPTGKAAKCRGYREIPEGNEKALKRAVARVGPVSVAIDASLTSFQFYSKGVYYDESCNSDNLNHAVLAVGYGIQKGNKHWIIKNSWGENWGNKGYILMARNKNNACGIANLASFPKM
Protocol: as §1
Human recombinant cathepsin K (Enzo Life Sciences) was assayed fluorometrically (FLUOstar Optima plate reader, BMG Labtech) with an emission wavelength of 360 nm and an absorption wavelength of 460 nm. The assay buffer was 100 mM sodium citrate pH 5.0, 100 mM NaCl, 1 mM EDTA, 0.01% CHAPS. For activation, an enzyme stock solution was diluted with assay buffer containing 5 mM DTT and incubated for 30 min at 37 °C. The final concentration of the chromogenic substrate Z-Leu-Arg-AMC was 40 µM (13.33 × Km).
as §2

EC50 (Nrf2-ARE) [µM]	remaining activity at 50 µM [3] [%]	remaining activity at 50 µM [4] [%]	remaining activity at 50 µM [5] [%]	remaining activity at 50 µM [6] [%]	Compound	Calcium Channel Blockade (%) [1] [%]	ORAC [2]
69.4 ± 9.1	79	86	92	82	C#CCN(C)C(=O)C1=C(C)NC(C)=C(C(=O)N(C)CC#C)C1c1ccccc1OC [4k, 4-(2-Methoxyphenyl)-N2,N3,5,6-tetramethyl-N3,N5-bis(prop-2-yn-1-yl)-1,4-dihydropyridine-3,5-dicarboxamide]	14	n.i.
81.7 ± 11.6	79	86	88	81	C#CCN(C)C(=O)C1=C(C)NC(C)=C(C(=O)N(C)CC#C)C1c1cccc(OC)c1 [4l, 4-(3-Methoxyphenyl)-N2,N3,5,6-tetramethyl-N3,N5-bis(prop-2-yn-1-yl)-1,4-dihydropyridine-3,5-dicarboxamide]	15	0.96 ± 0.07 Trolox equivalents
